Values of other authors in patent publication US10413531B2, “Methods of treating bladder cancer” (Abraxis BioScience, LLC, priority 2013, dated 2019).

Experiments:
[1] = tested on: ABCB1/ABCG2; conditions: Lin et al. (2013) Int J Cancer
[2] = Lin et al. (2013) Int J Cancer

COc1ccc(COc2cc3oc(=O)c4cc(C(C)O)ccc4c3cc2OC)cc1 (centres unmarked) [Palomid 529]
affinity for ABCB1/ABCG2 [1]: lacks affinity for ABCB1/ABCG2 | brain penetration [2]: good brain penetration
